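Grown in 96-well plates, cells were treated for 48 hours with each compound at five concentrations. Insufficient inhibition: endpoint recorded as highest concentration tested. GI50: concentration for 50% inhibition of growth.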 Activity calls are given as the source filed them. Cut-off read from the data, not from the text of the source: active = GI50 up to about 1.1 µM and inactive = higher.
Key:
Test in all cases: NCI-60 cell line screen, 48 h
786-0 = tested on: 786-0
A498 = tested on: A498
ACHN = tested on: ACHN
CAKI-1 = tested on: CAKI-1
CCRF-CEM = tested on: CCRF-CEM
DU-145 = tested on: DU-145
EKVX = tested on: EKVX
HCC 2998 = tested on: HCC 2998
HCT-116 = tested on: HCT-116
HCT-15 = tested on: HCT-15
HOP-62 = tested on: HOP-62
HOP-92 = tested on: HOP-92
HT-29 = tested on: HT-29
Hs-578T = tested on: Hs-578T
IGROV-1 = tested on: IGROV-1
K562 = tested on: K562
KM12 = tested on: KM12
LOX IMVI = tested on: LOX IMVI
MCF7 = tested on: MCF7
MDA-MB-231 = tested on: MDA-MB-231
MDA-MB-435 = tested on: MDA-MB-435
MDA-N = tested on: MDA-N
MOLT-4 = tested on: MOLT-4
NCI-H226 = tested on: NCI-H226
NCI-H460 = tested on: NCI-H460
NCI-H522 = tested on: NCI-H522
NCI/ADR-RES = tested on: NCI/ADR-RES
OVCAR-3 = tested on: OVCAR-3
OVCAR-4 = tested on: OVCAR-4
OVCAR-5 = tested on: OVCAR-5
OVCAR-8 = tested on: OVCAR-8
PC-3 = tested on: PC-3
RXF 393 = tested on: RXF 393
SF-268 = tested on: SF-268
SF-295 = tested on: SF-295
SF-539 = tested on: SF-539
SK-MEL-28 = tested on: SK-MEL-28
SK-MEL-2 = tested on: SK-MEL-2
SK-MEL-5 = tested on: SK-MEL-5
SK-OV-3 = tested on: SK-OV-3
SR = tested on: SR
SW-620 = tested on: SW-620
T47D = tested on: T47D
TK-10 = tested on: TK-10
U-251 = tested on: U-251
UACC-257 = tested on: UACC-257
UO-31 = tested on: UO-31
A549 = tested on: A549
COLO 205 = tested on: COLO 205
HL-60 = tested on: HL-60
M14 = tested on: M14
Malme-3M = tested on: Malme-3M
NCI-H23 = tested on: NCI-H23
RPMI-8226 = tested on: RPMI-8226
SN12C = tested on: SN12C
SNB-19 = tested on: SNB-19
SNB-75 = tested on: SNB-75
UACC-62 = tested on: UACC-62

SMILES: CN1CCN(Cn2nc(COc3ccc(Cl)cc3)n(/N=C/c3ccc(-c4ccc(Cl)cc4Cl)o3)c2=S)CC1
- GI50 (786-0): 5.12 µM (inactive)
- GI50 (A498): 18.3 µM (inactive)
- GI50 (ACHN): 19.7 µM (inactive)
- GI50 (CAKI-1): 14.2 µM (inactive)
- GI50 (CCRF-CEM): 0.247 µM (active)
- GI50 (DU-145): 11.9 µM (inactive)
- GI50 (EKVX): 14.5 µM (inactive)
- GI50 (HCC 2998): 3.18 µM (inactive)
- GI50 (HCT-116): 13.4 µM (inactive)
- GI50 (HCT-15): 18.6 µM
- GI50 (HOP-62): 5 µM (inactive)
- GI50 (HOP-92): 8.47 µM (inactive)
- GI50 (HT-29): 3.7 µM (inactive)
- GI50 (Hs-578T): 3.72 µM (inactive)
- GI50 (IGROV-1): 10.6 µM (inactive)
- GI50 (K562): 15.2 µM (inactive)
- GI50 (KM12): 3.18 µM (inactive)
- GI50 (LOX IMVI): 5.57 µM (inactive)
- GI50 (MCF7): 8.32 µM (inactive)
- GI50 (MDA-MB-231): 7 µM (inactive)
- GI50 (MDA-MB-435): 2.55 µM (inactive)
- GI50 (MDA-N): 4.02 µM (inactive)
- GI50 (MOLT-4): 16.7 µM (inactive)
- GI50 (NCI-H226): 19.6 µM (inactive)
- GI50 (NCI-H460): 17.8 µM (inactive)
- GI50 (NCI-H522): 3.72 µM (inactive)
- GI50 (NCI/ADR-RES): 20.5 µM (inactive)
- GI50 (OVCAR-3): 14.1 µM (inactive)
- GI50 (OVCAR-4): 3.05 µM (inactive)
- GI50 (OVCAR-5): 6.46 µM (inactive)
- GI50 (OVCAR-8): 4.89 µM (inactive)
- GI50 (PC-3): 11.2 µM (inactive)
- GI50 (RXF 393): 2.33 µM (inactive)
- GI50 (SF-268): 3.95 µM (inactive)
- GI50 (SF-295): 13.4 µM (inactive)
- GI50 (SF-539): 26.4 µM (inactive)
- GI50 (SK-MEL-28): 13.9 µM (inactive)
- GI50 (SK-MEL-2): 18.3 µM (inactive)
- GI50 (SK-MEL-5): 14.8 µM (inactive)
- GI50 (SK-OV-3): 15.7 µM (inactive)
- GI50 (SR): 2.63 µM (inactive)
- GI50 (SW-620): 5.06 µM (inactive)
- GI50 (T47D): 6.64 µM (inactive)
- GI50 (TK-10): 14.5 µM (inactive)
- GI50 (U-251): 10.9 µM (inactive)
- GI50 (UACC-257): 17.6 µM (inactive)
- GI50 (UO-31): 17.6 µM (inactive)

SMILES: Cc1csc2nc(-c3ccc(Cl)c([N+](=O)[O-])c3)c(/C=N/NC(=N)N)n12
- GI50 (786-0): 1.49 µM (inactive)
- GI50 (A498): 1.51 µM (inactive)
- GI50 (A549): 1.83 µM (inactive)
- GI50 (ACHN): 1.6 µM (inactive)
- GI50 (CAKI-1): 1.83 µM (inactive)
- GI50 (CCRF-CEM): 1.01 µM (active)
- GI50 (COLO 205): 1.15 µM (inactive)
- GI50 (DU-145): 2.16 µM (inactive)
- GI50 (EKVX): 1.49 µM (inactive)
- GI50 (HCT-116): 1.68 µM (inactive)
- GI50 (HCT-15): 1.66 µM
- GI50 (HL-60): 1.7 µM (inactive)
- GI50 (HOP-62): 1.61 µM (inactive)
- GI50 (HOP-92): 0.163 µM (active)
- GI50 (HT-29): 1.77 µM (inactive)
- GI50 (Hs-578T): 1.4 µM (inactive)
- GI50 (KM12): 1.75 µM (inactive)
- GI50 (LOX IMVI): 1.51 µM (inactive)
- GI50 (M14): 1.74 µM (inactive)
- GI50 (MCF7): 1.26 µM (inactive)
- GI50 (MDA-MB-231): 1.77 µM (inactive)
- GI50 (MDA-MB-435): 1.69 µM (inactive)
- GI50 (MDA-N): 1.32 µM (inactive)
- GI50 (Malme-3M): 1.9 µM (inactive)
- GI50 (NCI-H226): 1.67 µM (inactive)
- GI50 (NCI-H23): 1.7 µM (inactive)
- GI50 (NCI-H460): 1.78 µM (inactive)
- GI50 (NCI/ADR-RES): 2.21 µM (inactive)
- GI50 (OVCAR-3): 1.96 µM (inactive)
- GI50 (OVCAR-4): 1.64 µM (inactive)
- GI50 (OVCAR-5): 1.21 µM (inactive)
- GI50 (OVCAR-8): 0.406 µM (active)
- GI50 (PC-3): 1.48 µM (inactive)
- GI50 (RPMI-8226): 1.75 µM (inactive)
- GI50 (RXF 393): 1.63 µM (inactive)
- GI50 (SF-268): 1.71 µM (inactive)
- GI50 (SF-295): 1.4 µM (inactive)
- GI50 (SF-539): 1.61 µM (inactive)
- GI50 (SK-MEL-28): 1.82 µM (inactive)
- GI50 (SK-MEL-2): 1.22 µM (inactive)
- GI50 (SK-MEL-5): 1.52 µM (inactive)
- GI50 (SK-OV-3): 1.84 µM (inactive)
- GI50 (SN12C): 1.76 µM (inactive)
- GI50 (SNB-19): 1.3 µM (inactive)
- GI50 (SNB-75): 1.57 µM (inactive)
- GI50 (SW-620): 0.384 µM (active)
- GI50 (T47D): 1.81 µM (inactive)
- GI50 (TK-10): 2.2 µM (inactive)
- GI50 (U-251): 1.5 µM (inactive)
- GI50 (UACC-257): 0.459 µM (active)
- GI50 (UACC-62): 1.72 µM (inactive)
- GI50 (UO-31): 1.12 µM (inactive)

SMILES: CCOC(=O)C(=O)/C(=C\NC(=S)Nc1ccccc1Cl)C(=O)OCC
- GI50 (786-0): > 100 µM (inactive)
- GI50 (A498): > 100 µM (inactive)
- GI50 (A549): > 100 µM (inactive)
- GI50 (ACHN): > 100 µM (inactive)
- GI50 (CAKI-1): > 100 µM (inactive)
- GI50 (CCRF-CEM): > 100 µM (inactive)
- GI50 (COLO 205): > 100 µM (inactive)
- GI50 (DU-145): > 100 µM (inactive)
- GI50 (EKVX): > 100 µM (inactive)
- GI50 (HCC 2998): > 100 µM (inactive)
- GI50 (HCT-116): > 100 µM (inactive)
- GI50 (HCT-15): > 100 µM
- GI50 (HL-60): > 100 µM (inactive)
- GI50 (HOP-62): > 100 µM (inactive)
- GI50 (HOP-92): 3.59 µM (inactive)
- GI50 (HT-29): > 100 µM (inactive)
- GI50 (Hs-578T): > 100 µM (inactive)
- GI50 (IGROV-1): > 100 µM (inactive)
- GI50 (K562): > 100 µM (inactive)
- GI50 (KM12): > 100 µM (inactive)
- GI50 (LOX IMVI): > 100 µM (inactive)
- GI50 (M14): > 100 µM (inactive)
- GI50 (MCF7): > 100 µM (inactive)
- GI50 (MDA-MB-231): > 100 µM (inactive)
- GI50 (MDA-MB-435): > 100 µM (inactive)
- GI50 (MDA-N): > 100 µM (inactive)
- GI50 (MOLT-4): > 100 µM (inactive)
- GI50 (Malme-3M): > 100 µM (inactive)
- GI50 (NCI-H226): > 100 µM (inactive)
- GI50 (NCI-H23): > 100 µM (inactive)
- GI50 (NCI-H460): > 100 µM (inactive)
- GI50 (NCI-H522): > 100 µM (inactive)
- GI50 (NCI/ADR-RES): > 100 µM (inactive)
- GI50 (OVCAR-3): > 100 µM (inactive)
- GI50 (OVCAR-4): > 100 µM (inactive)
- GI50 (OVCAR-5): > 100 µM (inactive)
- GI50 (OVCAR-8): > 100 µM (inactive)
- GI50 (PC-3): > 100 µM (inactive)
- GI50 (RPMI-8226): > 100 µM (inactive)
- GI50 (RXF 393): > 100 µM (inactive)
- GI50 (SF-268): > 100 µM (inactive)
- GI50 (SF-295): > 100 µM (inactive)
- GI50 (SF-539): > 100 µM (inactive)
- GI50 (SK-MEL-28): > 100 µM (inactive)
- GI50 (SK-MEL-2): > 100 µM (inactive)
- GI50 (SK-MEL-5): > 100 µM (inactive)
- GI50 (SK-OV-3): > 100 µM (inactive)
- GI50 (SN12C): > 100 µM (inactive)
- GI50 (SNB-19): > 100 µM (inactive)
- GI50 (SNB-75): > 100 µM (inactive)
- GI50 (SR): > 100 µM (inactive)
- GI50 (SW-620): > 100 µM (inactive)
- GI50 (T47D): > 100 µM (inactive)
- GI50 (U-251): > 100 µM (inactive)
- GI50 (UACC-257): > 100 µM (inactive)
- GI50 (UACC-62): > 100 µM (inactive)
- GI50 (UO-31): > 100 µM (inactive)

From ChEMBL document CHEMBL1201862, “PubChem BioAssay data set” (2004)
